Where two headings read alike, the source gives them in different places.

The values that follow come from patent publication US7491827B2, “Aryl sulfonamides useful as inhibitors of chemokine receptor activity” (Millennium Pharmaceuticals, Inc., priority 2003, dated 2009).

This assay addresses T1, cloned human CCR8 receptor stably expressed in L1.2 cells (Homo sapiens, UniProt P51685).
T1 construct: expressed in transfected cells
In words: whole cell binding screen: inhibition of biotinylated human I309 binding to CCR8 (FMAT 8100 HTS). The conditions noted are these: biotinylated human I-309, 10 point concentration response starting at 10 μM. In outline:
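L1.2 murine pre-B cells stably expressing human CCR8 (4.0×10^5 cells/mL) in HBSS/HEPES/fatty-acid-free BSA/azide buffer were mixed with biotinylated human I309 and compounds for 0.5 h, read by FMAT fluorescence. 10-point curves from 10 μM final; percent inhibition normalized to no-inhibitor and 100 nM unlabeled I309 controls.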

[1] abbreviates: L1.2/hCCR8 cells, read-out: Ki of compounds to inhibit I-309 binding to CCR8.
Where [2] appears, read: Ki of compounds to inhibit I-309 binding to CCR8, L1.2/hCCR8 cells.

T1 sequence (P51685 whole entry): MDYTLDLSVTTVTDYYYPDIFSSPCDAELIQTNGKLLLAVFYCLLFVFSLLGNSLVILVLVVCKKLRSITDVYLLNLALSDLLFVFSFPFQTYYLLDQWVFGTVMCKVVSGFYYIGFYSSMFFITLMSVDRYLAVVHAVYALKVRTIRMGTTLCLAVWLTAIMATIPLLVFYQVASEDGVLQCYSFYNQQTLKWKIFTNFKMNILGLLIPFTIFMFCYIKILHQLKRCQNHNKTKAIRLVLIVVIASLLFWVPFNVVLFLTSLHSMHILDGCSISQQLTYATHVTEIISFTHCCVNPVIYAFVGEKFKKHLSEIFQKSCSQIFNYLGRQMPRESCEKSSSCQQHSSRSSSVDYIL

Consider `CC(C)(C)OC(=O)N1CCC(NS(=O)(=O)c2ccc(C(=O)Nc3ccccc3Cl)c3ccccc23)CC1` [Compound F-14, 4-[4-(2-Chloro-phenylcarbamoyl)-naphthalene-1-sulfonylamino]-piperidine-1-carboxylic acid tert-butyl ester], for which, under setting [1], the Ki is less than 1000 nM.

In the case of `Cc1ccccc1C(=O)Nc1ccc(S(=O)(=O)NC2CCN(C(=N)N3CCCC3)CC2)c2ccccc12` [Compound C-40, N-{4-[1-(Imino-pyrrolidin-1-yl-methyl)-piperidin-4-ylsulfamoyl]-naphthalen-1-yl}-2-methyl-benzamide], the Ki under setting [2] was less than 500 nM.

Consider `CN1CCC(C(=O)Nc2ccc(S(=O)(=O)NC3CCNCC3)c3ccccc23)CC1` [Compound D-17, 1-Methyl-piperidine-4-carboxylic acid [4-(piperidin-4-ylsulfamoyl)-naphthalen-1-yl]-amide], for which, under setting [1], the Ki is less than 30000 nM.

Turning to `Cc1ccccc1C(=O)Nc1ccc(S(=O)(=O)NCCCN2CCOCC2)c2c1CCCC2` [Compound E-25, 2-Methyl-N-[4-(3-morpholin-4-yl-propylsulfamoyl)-5,6,7,8-tetrahydro-naphthalen-1-yl]-benzamide], the Ki under setting [1] was less than 30000 nM.

With `CCOC(=O)N1CCC(NS(=O)(=O)c2ccc(CNCCc3ccccc3)c3ccccc23)CC1` [Compound G-24, 4-[4-(Phenethylamino-methyl)-naphthalene-1-sulfonylamino]-piperidine-1-carboxylic acid ethyl ester], the Ki under setting [1] is less than 500 nM.

As for `COc1ccc(NS(=O)(=O)c2ccc(N3C(=O)c4ccccc4C3=O)c3ccccc23)cc1` [Compound A-2, 4-(1,3-Dioxo-1,3-dihydro-isoindol-2-yl)-naphthalene-1-sulfonic acid (4-methoxyphenyl)-amide], under setting [2], the Ki was less than 30000 nM.

Consider `CN(C)C(=O)N1CCC(NS(=O)(=O)c2ccc(C(=O)N(C)C3CCCCC3)c3ccccc23)CC1` [Compound F-28, 4-[4-(Cyclohexyl-methyl-carbamoyl)-naphthalene-1-sulfonylamino]-piperidine-1-carboxylic acid dimethylamide], for which, under setting [1], the Ki was less than 500 nM.

Under setting [2], `O=C(Nc1ccc(S(=O)(=O)NC2CCCCC2)c2ccccc12)c1ccccc1` [Compound A-10, N-(4-Cyclohexylsulfamoyl-naphthalen-1-yl)-benzamide] yielded a Ki of less than 1000 nM.

Consider `CCOC(=O)N1CCC(NS(=O)(=O)c2ccc(NC(=O)c3cccnc3C)c3ccccc23)CC1` [Compound B-24], for which the Ki under setting [1] is less than 500 nM.

On to `CCOC(=O)N1CCC(NS(=O)(=O)c2cccc3c(NC(=O)N4CCOCC4)cccc23)CC1` [Compound H-17, 4-{5-[(Morpholine-4-carbonyl)-amino]-naphthalene-1-sulfonylamino}-piperidine-1-carboxylic acid ethyl ester], for which the Ki under setting [1] was less than 1000 nM.

On to `CCOC(=O)N1CC[C@H](NS(=O)(=O)c2ccc(NC(=O)c3ccccc3C)c3ccccc23)[C@@H](CO)C1` (racemic) [Compound C-82, (±)-(trans)-3—Hydroxymethyl-4-[4-(2-methyl-benzoylamino)-naphthalene-1-sulfonylamino]-piperidine-1-carboxylic acid ethyl ester], for which the Ki under setting [1] was less than 500 nM.

As for `CCCC(=O)N1CCC(NS(=O)(=O)c2ccc(NC(=O)C3CC3)c3ccccc23)CC1` [Compound D-15, Cyclopropanecarboxylic acid [4-(1-butyryl-piperidin-4-ylsulfamoyl)-naphthalen-1-yl]-amide], under setting [1], the Ki was less than 500 nM.

Take `CC(C)(C)OC(=O)N1CCC(NS(=O)(=O)c2ccc(NC(=O)C3CCC3)c3ccccc23)CC1` [Compound B-18, 4-[4-(Cyclobutanecarbonyl-amino)-naphthalene-1-sulfonylamino]-piperidine-1-carboxylic acid tert-butyl ester]: the Ki under setting [1] is less than 30000 nM.

Turning to `CCCC(=O)N1CC[C@H](NS(=O)(=O)c2ccc(NC(=O)c3cccnc3C)c3ccccc23)[C@@H](C)C1` (racemic) [Compound D-10, (±)-(trans)-N-[4-(1-Butyryl-3-methyl-piperidin-4-ylsulfamoyl)-naphthalen-1-yl]-2-methyl-nicotinamide], the Ki under setting [1] is less than 500 nM.

`O=S(=O)(NC1CCCCC1)c1ccc(CNC2CCCCC2)c2ccccc12` [Compound G-31, 4-Cyclohexylaminomethyl-naphthalene-1-sulfonic acid cyclohexylamide]: the inhibition constant Ki under setting [1] was less than 500 nM.

For `Cc1cccc(NC(=O)c2ccc(S(=O)(=O)NC3CCNCC3)c3ccccc23)c1C` [Compound F-16, 4-(Piperidin-4-ylsulfamoyl)-naphthalene-1-carboxylic acid (2,3-dimethyl-phenyl)-amide], the Ki under setting [1] is less than 30000 nM.

With `CCC(C)N1CCC(NS(=O)(=O)c2ccc(NC(=O)c3ccccc3C)c3ccccc23)CC1` (racemic) [Compound C-32, (±)-N-[4-(1-sec-Butyl-piperidin-4-ylsulfamoyl)-naphthalen-1-yl]-2-methyl-benzamide], the Ki under setting [1] is less than 1000 nM.

With `CCNC(=O)N1CCC(NS(=O)(=O)c2ccc(C(=O)NC3CCCCC3)c3ccccc23)CC1` [Compound F-8, 4-(4-Cyclohexylcarbamoyl-naphthalene-1-sulfonylamino)-piperidine-1-carboxylic acid ethylamide], the inhibition constant (Ki) under setting [1] was less than 500 nM.

As to `CCOC(=O)N1CCC(NS(=O)(=O)c2cccc3c(CNC4CCCCC4)cccc23)CC1` [Compound H-46, 4-(5-Cyclohexylainnomethyl-naphthalene-1-sulfonylainino)-piperidine-1-carboxylic acid ethyl ester], the Ki under setting [1] is less than 500 nM.

With `COc1ccc(NS(=O)(=O)c2ccc(NC(=O)c3ccncc3)c3ccccc23)cc1` [Compound B-8, N-[4-(4-Methoxy-phenylsulfamoyl)-naphthalen-1-yl]-isonicotinamide], under setting [1], the inhibition constant Ki was less than 1000 nM.

As to `CCC(=O)N1CCC(NS(=O)(=O)c2ccc(NC(=O)c3ccccc3Cl)c3ccccc23)CC1` [Compound C-103, 2-Chloro-N-[4-(1-propionyl-piperidin-4-ylsuffamoyl)-naphthalen-1-yl]-benzamide], the Ki under setting [1] is less than 500 nM.

As for `CCOC(=O)[C@H]1CN(C(=O)OCC)CC[C@@H]1NS(=O)(=O)c1ccc(NC(=O)c2ccccc2C)c2ccccc12` (racemic) [Compound C-79, (±)-(trans)-4-[4-(2-Methyl-benzoylamino)-naphthalene-1-sulfonylamino]-piperidine-1,3-dicarboxylic acid diethyl ester], the Ki under setting [1] was less than 30000 nM.

Turning to `Cc1ccccc1C(=O)Nc1ccc(S(=O)(=O)N[C@H]2CCN(C(=O)N(C)C)C[C@H]2C)c2ccccc12` (racemic) [Compound C-29, (±)-cis-3-Methyl-4-[4-(2-methyl-benzoylandno)-naphthalene-1-sulfonylamio]-piperidine-1-carboxylic acid dimethylamide], the Ki under setting [1] was less than 500 nM.

Consider `CCOC(=O)N1CCC(NS(=O)(=O)c2cccc3c(C(=O)Nc4ccccc4)cccc23)CC1` [Compound H-27, 4-(5-Phenylcarbamoyl-naphthalene-1-sulfonylamino)-piperidine-1-carboxylic acid ethyl ester], for which the inhibitory constant (Ki) under setting [1] is less than 1000 nM.

For `CCOC(=O)N1CCC(NS(=O)(=O)c2ccc(CNC3CCN(C)CC3)c3ccccc23)CC1` [Compound G-25, 4-{4-[(1-Methyl-piperidin-4-ylamino)-methyl]-naphthalene-1-sulfonylamino}-piperidine-1-carboxylic acid ethyl ester], the Ki under setting [1] was less than 30000 nM.

Turning to `CCCC(=O)N1CC[C@H](NS(=O)(=O)c2ccc(NC(=O)c3c(C)noc3C)c3ccccc23)[C@H](C)C1` (racemic) [Compound D-5, (±)-(cis)-3,5-Dimethyl-isoxazole-4-carboxylic acid [4-(1-butyryl-3-methyl-piperidin-4-ylsulfamoyl)-naphthalen-1-yl]-amide], the Ki under setting [1] is less than 500 nM.

As to `CCOC(=O)N1CCC(NS(=O)(=O)c2cccc3c(NC(=O)c4ccc(C)cc4)cccc23)CC1` [Compound H-15, 4-[5-(4-Methyl-benzoylamino)-naphthalene-1-sulfonylamino]-piperidine-1-carboxylic acid ethyl ester], the Ki under setting [1] is less than 1000 nM.

In the case of `Cc1ccccc1C(=O)Nc1ccc(S(=O)(=O)NC2CCN(C(=O)C3CCCC3)CC2)c2ccccc12` [Compound C-38, N-[4-(1-Cyclopentanecarbonyl-piperidin-4-ylsulfamoyl)-naphthalen-1-yl]-2-methyl-benzamide], the Ki under setting [2] is less than 500 nM.

`Cc1ccccc1C(=O)Nc1ccc(S(=O)(=O)NC2CCN(C(=O)OC(C)C)CC2)c2c1CCC2` [Compound H-70, 4-[7-(2-Methyl-benzoylamino)-indane-4-sulfonylamino]-piperidine-1-carboxylic acid isopropyl ester]: the Ki under setting [1] is less than 500 nM.

In the case of `COc1ccc(NS(=O)(=O)c2ccc(NC(=O)c3ccc(OC)cc3)c3ccccc23)cc1` [Compound B-2, 4-Methoxy-N-[4-(4-methoxy-phenylsulfamoyl)-naphthalen-1-yl]-benzamide], the Ki under setting [1] is less than 500 nM.

`CCOC(=O)N1CC[C@H](NS(=O)(=O)c2ccc(NC(=O)c3ccccc3C)c3ccccc23)[C@H](C)C1` (racemic) [Compound C-136, (±)-cis-3-Methyl-4-[4-(2-methyl-benzoylamino)-naphthalene-1-sulfonylamino]-piperidine-1-carboxylic acid ethyl ester]: the inhibition constant Ki under setting [1] is less than 500 nM.

Consider `CCNC(=O)N1CCCC(NS(=O)(=O)c2ccc(NC(=O)c3ccccc3C)c3ccccc23)C1` (racemic) [Compound C-113, (±)-3-[4-(2-Methyl-benzoylangno)-naphthalene-1-sulfonylamino]-piperidine-1-carboxylic acid ethylamide], for which the Ki under setting [1] was less than 500 nM.

`CC(C)c1ccc(NS(=O)(=O)c2ccc3cccc(NC(=O)c4ccccc4)c3c2)cc1` [Compound H-50, N-[7-(4-Isopropyl-phenylsuffamoyl)-naphthalen-1-yl]-benzamide]: the Ki under setting [1] is less than 30000 nM.

In general, Ki refers to a measure of affinity in units of concentration, obtained from inhibition or displacement.
